Key:
Test in all cases: pTyr-Var library bacterial peptide display kinase screen (enrichment scores)
c-Abl kinase domain = target: T1, c-Abl kinase domain (Mus musculus, UniProt P00520); assay type: biochemical;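 note: log2 fold change in enrichment of variant over reference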
T1 sequence (P00520 242-493 limits assumed): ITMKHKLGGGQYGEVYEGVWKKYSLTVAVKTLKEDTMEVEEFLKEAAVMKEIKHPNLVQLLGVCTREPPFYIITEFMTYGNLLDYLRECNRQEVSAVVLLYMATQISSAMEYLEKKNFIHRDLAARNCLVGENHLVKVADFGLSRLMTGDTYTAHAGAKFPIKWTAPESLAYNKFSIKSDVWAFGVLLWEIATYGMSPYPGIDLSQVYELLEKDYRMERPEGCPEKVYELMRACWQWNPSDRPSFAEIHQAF

c-Src kinase domain = c-Src kinase domain (Homo sapiens, UniProt P12931); assay type: biochemical; details: for Screen: sheet "Src";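 for screen: log2 fold change in enrichment of variant over reference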
Fer kinase domain = assay type: biochemical, mouse; details: sheet "Fer"
EPHB1 kinase domain = assay type: biochemical, human; details: for Screen: sheet EPHB1, effect of the variant peptide relative to its reference peptide in the pTyr-Var library screen (enrichment scores); for Screen (variant relative to reference peptide, measured in the pTyr-Var library screen): sheet "EPHB1", variant seq vs reference seq, bacterial peptide display enrichment
EPHB2 kinase domain = assay type: biochemical, human; details: sheet EPHB2; effect of variant peptide relative to its reference peptide in the pTyr-Var library screen (enrichment scores)
[1] = sheet "Abl", effect of variant peptide relative to its reference peptide in pTyr-Var library screen (enrichment)
[2] = fig5-data2, sheet "Abl", Screen for the variant/reference peptide pair, pTyr-Var library
[3] = effect of the variant peptide relative to its reference peptide in the pTyr-Var library screen
[4] = variant peptide versus its reference peptide in the pTyr-Var library screen
[5] = value of the variant peptide against its reference peptide in the pTyr-Var library screen with Fer
[6] = variant peptide relative to its reference peptide, pTyr-Var library screen enrichment

AVDDKYSRREE [SART1_Y685_I681V]
Screen (c-Abl kinase domain; [1]): 0.5221

CEAVEYLESKQ [BTK_Y511_M509V]
Screen (c-Abl kinase domain; [2]): 1.602

CEETFYTMKMN [MASP2_Y401_V405M]
Screen (c-Src kinase domain; [3]): 0.9168

CGTPDYIDPEI [PRKCG_Y521_A523D]
Screen (c-Abl kinase domain; [2]): -0.1317

DCAAIYGNEPD [AKR1A1_Y50_E55D]
Screen (c-Src kinase domain; [3]): 0.2268

DFCDLYGGEKF [PTPN11_Y66_Y63C_YF]
Screen (c-Src kinase domain; [4]): -0.008516

DFFDLYGGEKL [PTPN11_Y66_F71L_YF]
Screen (c-Abl kinase domain; [2]): -1.348 | Screen (c-Src kinase domain; [4]): 0.4429

DISEPYEVFRI [IRF8_Y107_K108E_YF]
Screen (Fer kinase domain; [5]): 4.437 | Screen (c-Src kinase domain; [3]): 2.852

DKATEYSQFMR [MAX_Y70_I71S_YF]
Screen (c-Abl kinase domain; [2]): -0.2428

DLDFTYIFPNI [PTEN_Y27_L25F_YF]
Screen (EPHB1 kinase domain): -1.115 | Screen (c-Src kinase domain; [4]): -0.8557

DRLASYLDKLR [KRT12_Y139_V143L]
Screen (c-Abl kinase domain; [2]): 0.402

DTFDPYLDIAL [USP36_Y268_V271I_YF]
Screen (Fer kinase domain; [6]): -0.4655

EAIAKYDLKAT [GRB2_Y7_F9L]
Screen (c-Abl kinase domain; [2]): -1.289

EALDFYGEVRT
Enrichment score (mean) (c-Src kinase domain; pTyr-Var library screen with c-Src, sheet "Src substrates": annotated Src substrate sites, 11-residue peptide SITE_+/-5_AA, mean): 1.015

EPSLVYMVTKI [CPS1_Y768_D767V]
Screen (Fer kinase domain; [5]): 1.098

ERIEFYELNKK [PMM2_Y145_D148N]
Screen (c-Abl kinase domain; [2]): -0.6166

ERRLIYASDPK [VPS13D_Y864_T865A]
Screen (c-Abl kinase domain; [1]): -3.237

FAANFYKLLGN [ROR2_Y646_D644N_YF]
Screen (c-Abl kinase domain; [2]): 1.009

FIATQYSLCPR [LBR_Y166_R169C_YF]
Screen (c-Abl kinase domain; [2]): -1.302

FKEIVYAVSSD [DCX_Y70_G67E]
Screen (c-Src kinase domain; [3]): 2.95

FLAVGYHKPRI [IDS_Y225_H229R]
Screen (c-Abl kinase domain; [2]): -0.1841

FQKNIYSEEPR [LMNA_Y211_L215P]
Screen (c-Src kinase domain; [3]): -0.2654

FQRITYHNWRH [PDE6B_Y556_R552Q_YF]
Screen (c-Abl kinase domain; [2]): 0.8312

FSIDFYRVGGH [NTRK2_Y707_T704I_YF]
Screen (c-Abl kinase domain; [2]): -1.897

GFILMYDITNK [RAB3C_Y110_E115K]
Screen (EPHB2 kinase domain): -0.5126

GVMLLYFGRFN [ADGRD1_Y85_T82M_YF]
Screen (c-Abl kinase domain; [2]): 0.9615

HDRNTYEKFLE [TF_Y666_G671E_YF]
Screen (c-Src kinase domain; [4]): -1.841

HRNNNYEPNLF [BRCA2_Y57_K53R]
Screen (EPHB1 kinase domain): -0.3671

HVSISYDIPLT [GAB1_Y307_P311L]
Screen (c-Abl kinase domain; [2]): 1.089

IDSTPYGQWFE [RPS8_Y109_R110G_YF]
Screen (c-Src kinase domain; [4]): 3.305

IEPCIYIPEDD [XPNPEP3_Y455_G453C]
Screen (c-Abl kinase domain; [1]): -2.393

IGHGSYAKVLL [PRKCZ_Y263_R260H]
Screen (c-Abl kinase domain; [2]): 0.1947

IMVFVYCRVFQ [ADRB2_Y219_S220C]
Screen (c-Abl kinase domain; [2]): 1.764

IPGGIYNADLN [CST4_Y35_D36N]
Screen (c-Src kinase domain; [3]): -0.256

IPTPAYQSLPA [PDCD6IP_Y727_S730L]
Screen (c-Abl kinase domain; [2]): -0.8712

KDQPDYKFQPR [SOX9_Y172_H169Q_YF]
Screen (c-Abl kinase domain; [1]): -0.1662

KFEDVYVRICL [B3GALNT1_Y269_G271R]
Screen (Fer kinase domain; [5]): -2.092 | Screen (c-Src kinase domain; [3]): -2.417

KKLAEYGPQGK [CLCA1_Y147_R152K]
Screen (c-Abl kinase domain; [2]): 0.7729

KMKGDYFRSLA [YWHAG_Y130_Y133S_YF]
Screen (c-Abl kinase domain; [1]): -4.108 | Screen (c-Src kinase domain; [4]): -2.206

KRGIDYILWHM [FRMD1_Y225_R228W]
Screen (c-Abl kinase domain; [2]): 2.918

KRRGPYEMSPS [PLPP7_Y172_T174M]
Screen (c-Abl kinase domain; [2]): -0.6744

KSMFVYCTPNK [ATP2A2_Y497_S495F]
Screen (c-Abl kinase domain; [2]): 1.832

KSSDVYVSFDC [SORL1_Y136_Y141C_YF]
Screen (Fer kinase domain; [6]): -2.678 | Screen (variant relative to reference peptide, measured in the pTyr-Var library screen) (EPHB1 kinase domain): -0.2812 | Screen (c-Src kinase domain; [4]): -0.3615

KVALVYGQMNQ [ATP5F1B_Y269_E274Q]
Screen (c-Src kinase domain; [3]): 0.6915

LAIERYVVVSK [RHO_Y136_C140S]
Screen (EPHB2 kinase domain): 0.1273

LAIEWYVVVCK [RHO_Y136_R135W]
Screen (EPHB1 kinase domain): 0.5887

LEVETYRRLLD [KRT12_Y429_I426V]
Screen (c-Abl kinase domain; [2]): 0.412

LGSVVYAQSKE [KCNQ2_Y226_H228Q]
Screen (EPHB1 kinase domain): 1.461

LGSWTYPKTVS [ROS1_Y144_T145P]
Screen (EPHB1 kinase domain): -2.133

LITILYIGFLG [KCNQ1_Y267_T265I]
Screen (c-Src kinase domain; [3]): -1.468

LITLVYGCSRQ [TMPRSS6_Y290_S288L]
Screen (c-Src kinase domain; [4]): -0.7056

LLQAEYWHDPI [PPT1_Y185_V181L]
Screen (c-Abl kinase domain; [2]): 0.8908

LRFDSYWSFCN [SLC20A2_Y433_S434W_YF]
Screen (c-Src kinase domain; [4]): 2.108

LVKDPYVMFPQ [PLEKHG2_Y489_P484L]
Screen (c-Abl kinase domain; [2]): 1.829 | Screen (c-Src kinase domain; [4]): 0.6915

LVQAEYWHDRI [PPT1_Y185_P189R]
Screen (c-Abl kinase domain; [2]): 0.6024

MIHSAYALGGL [CPS1_Y590_R587H]
Screen (c-Abl kinase domain; [2]): -0.66

MNLLGYRQVRS [CHST4_Y359_H361Q]
Screen (c-Abl kinase domain; [2]): -1.908

MVSLFYGTAIF [OR10C1_Y251_L255I]
Screen (c-Src kinase domain; [4]): -0.3478

NRLTDYFELLL [BBS10_Y536_P539L_YF]
Screen (EPHB1 kinase domain): -2.013

NTADFYDLFGG [PTPN11_Y63_G60A_YF]
Screen (Fer kinase domain; [6]): -0.1929 | Screen (c-Src kinase domain; [4]): -0.001161

NTVDFYDLFGG [PTPN11_Y63_G60V_YF]
Screen (Fer kinase domain; [6]): -0.946 | Screen (c-Src kinase domain; [4]): -0.792

PEAALYGRFTF [FYN_Y440_I445F]
Screen (Fer kinase domain; [5]): 0.7423 | Screen (c-Src kinase domain; [3]): 0.2008

PESIMYWKFTT [NTRK3_Y744_R745W]
Screen (Fer kinase domain; [5]): 1.613 | Screen (c-Src kinase domain; [4]): 2.713

PFAEPYADFGG [APBA1_Y187_S184A_YF]
Screen (c-Src kinase domain; [3]): -0.451

PLDGEYFTLHI [TP53_Y327_Q331H]
Screen (c-Src kinase domain; [4]): -0.3825

PLDGEYFTLRI [TP53_Y327_Q331R]
Screen (c-Src kinase domain; [4]): -0.2935

PLQNTYNFNVL [SLC4A1_Y553_K551N_YF]
Screen (c-Src kinase domain; [4]): 2.669

PRIHSYRGHLW [VHL_Y112_R107P]
Screen (variant relative to reference peptide, measured in the pTyr-Var library screen) (EPHB1 kinase domain): -0.7646 | Screen (c-Src kinase domain; [4]): -2.322

QADVTYVNTQL [MERTK_Y872_I871T]
Screen (Fer kinase domain; [5]): -3.553 | Screen (EPHB1 kinase domain): -1.632

QGCGIYKDFFR [PLA2G2D_Y82_S80G_YF]
Screen (c-Src kinase domain; [4]): -0.1018

QNKEDYDGLKE [GSTO1_Y139_A140D]
Screen (Fer kinase domain; [5]): -0.3459

RCQDLYSARDL [SART1_Y249_R245C]
Screen (Fer kinase domain; [6]): 2.483 | Screen (EPHB1 kinase domain): 1.546 | Screen (c-Src kinase domain; [4]): 2.461

RFGRKYKKVRF [F8_Y442_I438F]
Screen (c-Abl kinase domain; [2]): -0.368

RGDVIYKGFED [NFU1_Y194_G189R]
Screen (c-Src kinase domain; [4]): -0.4435

RKPDIYGRLAS [MCM4_Y459_E460G]
Screen (c-Src kinase domain; [3]): 0.1835

RLGDLYKEEMR [VIM_Y150_E151K]
Screen (c-Abl kinase domain; [1]): 1.898

RMDGKYACSFT [FLNB_Y704_T703K_YF]
Screen (c-Src kinase domain; [3]): -2.226

RQQEVYLLFKQ [RARRES1_Y159_D158V_YF]
Screen (c-Abl kinase domain; [2]): 1.344

RRIHSYRRHLW [VHL_Y112_G114R]
Screen (variant relative to reference peptide, measured in the pTyr-Var library screen) (EPHB1 kinase domain): -1.158 | Screen (c-Src kinase domain; [4]): -2.73

RVFIKYLPEWT [PSEN1_Y240_L235R]
Screen (c-Abl kinase domain; [2]): 0.4533

SDVDLYQVRIA [PSMD9_Y70_T74I]
Screen (c-Src kinase domain; [4]): 0.1663

SGADSYEMEED [EGFR_Y316_C311S]
Screen (c-Abl kinase domain; [2]): 1.025

SILAVYSKDIF [PANK2_Y400_N404I_YF]
Screen (c-Src kinase domain; [4]): -0.2771

SLIDGYFRLTE [JAK2_Y372_A377E_YF]
Screen (c-Abl kinase domain; [2]): -1.303

SVTCPYSPALN [TP53_Y126_T125P]
Screen (c-Src kinase domain; [4]): 1.73

TEGNGYISFNE [LCP1_Y28_D24E]
Screen (c-Abl kinase domain; [2]): 0.5821

TENAGYFFRIS [TTN_Y31721_V31725I_YF]
Screen (c-Abl kinase domain; [1]): -1.38

TTEHIYGDKFF [UBA7_Y524_N527K]
Screen (Fer kinase domain; [6]): -2.246 | Screen (c-Src kinase domain; [4]): 0.1479

VITTLYIGFLG [KCNQ1_Y267_L262V]
Screen (c-Src kinase domain; [3]): -0.844

WQQQSYLDSEI [CTNNB1_Y30_G34E]
Screen (c-Abl kinase domain; [2]): 2.603
